# Literature values, collected in patent US20220370529A1, “CANNABIS COMPOSITIONS AND RELATED METHODS” (Access Business Group International LLC, priority 2021, published 2022).
# Legend:
# [1] = system: human keratinocytes (HaCaT cells); conditions: of 26 genes upregulated by TNF-α treatment
# [2] = system: human dermal fibroblast (HDF); conditions: HDF cells
# [3] = with rapid metabolism or redistribution
Compound,partition coefficient (log P),inflammatory related genes downregulated [1],"inhibitory effects on genes playing a role in inflammation and matrix remodeling, including IL-6 and MMP-9 ([2]; TNF-α treatment)",wound healing genes downregulated ([2]; of 16 genes upregulated by TNF-α treatment),human pulmonary uptake [3]
"C=C(C)[C@@H]1CCC(C)=C[C@H]1c1c(O)cc(CCCCC)cc1O [CBD, cannabidiol]",~6.3,15 genes,did not exhibit any inhibitory effects,11 genes,–
"CC1=CC[C@H]2C[C@@H]1C2(C)C [α-Pinene, α-pinene]",–,–,–,–,~60%
